Data set [1] deals with Mycobacterium tuberculosis H37Rv (Mtb). As to conditions: cited from earlier work.
Data set [2] has the same test system. To be noted: cited from earlier work. This is another data set of the same source.
Data set [3] has as its system Mycobacterium tuberculosis H37Rv CNCTC My 331/88 (ATCC 27294). The experiment in a line: Antimycobacterial microdilution MABA, M. tuberculosis. The format is cell-based. To be noted: Mycobacterium tuberculosis. In general terms: Broth dilution looks for growth in wells or tubes with falling amounts of substance.
Data set [4] relates to M. kansasii CNCTC My 235/80 (ATCC 12478). The data set can be described thus: Antimycobacterial microdilution MABA, M. kansasii. To be noted: Mycobacterium kansasii, ATCC12478; Middlebrook 7H9 with OADC, pH 6.6, MABA; read-out: M. kans. ATCC 12478 MIC. The format is cell-based, Mycobacterium kansasii.
The subject of data set [5] is M. avium ssp. avium CNCTC My 80/72 (ATCC 15769). The data set can be described thus: Antimycobacterial microdilution MABA, M. avium. The format is cell-based, Mycobacterium avium. As to conditions: Mycobacterium avium, ATCC15769; Middlebrook 7H9 with OADC, pH 6.6, MABA; read-out: M. avium ATCC 15769 MIC.
Data set [6] deals with Mycobacterium smegmatis CCM 4622 (ATCC 607). The data set can be described thus: Antimycobacterial microdilution, M. smegmatis. Format: cell-based. To be noted: Mycolicibacterium smegmatis, Middlebrook 7H9 with OADC, resazurin; read-out: M. smeg. ATCC 607 MIC.
The conditions of data set [7]: human, HepG2 cells.
The mark [8] stands for this setting: Middlebrook 7H9, pH = 6.6, MABA.

By MIC is commonly meant the smallest concentration in the dilution series that meets the test's criterion for growth inhibition. In general, melting point refers to the temperature of the solid-liquid transition. One may read the IC50 as the concentration that inhibits the measured activity by half. Read a low IC50 as higher potency.

Converted amounts (≈) assume the structure as drawn. Where two headings read alike, the source gives them in different places. Marks after values point to notes of the source that are not given here. A value given as a limit tells only on which side of the number the result lay.

With `O=C(Nc1cccc(C(F)(F)F)c1)c1cncc(Cl)n1` [Amide R1=6-Cl R2=3-CF3], in data set [1], the “Amides Inhibition (%) at 6.25 μg/mL (TAACF)” value (shortened to “Amides Inhibition (%)”) is 77 [32] %. Regarding `O=C(Nc1ccccc1)c1cncc(Cl)n1` [Amide R1=6-Cl R2=H], in data set [2] (Šula's semisynthetic medium, pH = 5.6, MABA), the “Amides MIC” value was 25 ^d [34] μg/mL. The “Amides Inhibition (%)” value in data set [1] is 32 [31] %.

For the compound `Cc1ccc(NC(=O)c2cnccn2)cc1` [Amide R1=H R2=4-CH3], the “Amides MIC” value in data set [2] (setting [8]) is 100 ^b [27] μg/mL. In addition, the “Amides Inhibition (%)” value in data set [1] is 86 [32] %. With `Cc1ccc(NC(=O)c2cncc(Cl)n2)cc1` [Amide R1=6-Cl R2=4-CH3], the “Amides Inhibition (%)” value in data set [1] is 71 [32] %. Regarding `O=C(Nc1cccc(C(F)(F)F)c1)c1cnccn1` [Amide R1=H R2=3-CF3], the “Amides MIC” value was 50 µg/mL in data set [2] (setting [8]) and 6.25 µg/mL in data set [2] (conditions not footnoted). Also, in data set [1], the “Amides Inhibition (%)” value is 99 [32] %.

As to `O=C(Nc1cncc(Cl)n1)c1cccc(C(F)(F)F)c1` [Compound 3n, N-(6-chloropyrazin-2-yl)-3-(trifluoromethyl)benzamide], the melting point was 124.2 to 125 °C. In addition, the MIC in data set [3] (Middlebrook 7H9 with OADC growth supplement, pH = 6.6, MABA, read-out: Mtb H37Rv ATCC 27294 MIC) is 25 µg/mL. Besides, the MIC in data set [3] (molar concentration, read-out: Mtb MIC) came to 82.9 µM. For the same compound, the MIC in data set [4] was found to be 25 µg/mL (≈ 82.9 µM). The MIC in data set [5] was determined as 50 µg/mL (≈ 166 µM). Besides, the MIC in data set [6] was found to be 125 µg/mL (≈ 414 µM). Also, the IC50 at 24 h in data set [7] is above 250 µM. Regarding `O=C(Nc1ccc(Cl)cc1)c1cncc(Cl)n1` [Amide R1=6-Cl R2=4-Cl], the “Amides Inhibition (%)” value in data set [1] is 65 [33] %. With `O=C(Nc1ccc(Cl)cc1)c1cnccn1` [Amide R1=H R2=4-Cl], the “Amides MIC” value in data set [2] (setting [8]) was 50 ^b [27] μg/mL. Moreover, the “Amides Inhibition (%)” value in data set [1] was 4 [33] %.

As for `COc1ccccc1NC(=O)c1cncc(Cl)n1` [Amide R1=6-Cl R2=2-OCH3], the “Amides Inhibition (%)” value in data set [1] is 6 [35] %. For `O=C(Nc1ccccc1)c1cnccn1` [Amide R1=H R2=H], in data set [2] (setting [8]), the “Amides MIC” value is >100 ^b [27] μg/mL. In addition, the “Amides Inhibition (%)” value in data set [1] is 0 [31] %.

Consider `COc1cccc(NC(=O)c2cncc(Cl)n2)c1` [Amide R1=6-Cl R2=3-OCH3], for which the “Amides Inhibition (%)” value in data set [1] is 2 [31] %. As for `O=C(Nc1cccc(Cl)c1)c1cncc(Cl)n1` [Amide R1=6-Cl R2=3-Cl], in data set [1], the “Amides Inhibition (%)” value was 14 [33] %. As for `O=C(Nc1ccc(Br)cc1)c1cnc(Cl)cn1` [Amide R1=5-Cl R2=4-Br], the “Amides MIC” value in data set [2] (Šula's semisynthetic medium, pH = 5.6, turbidity, first value) is 3.13 ^c [18] μg/mL. For the compound `O=C(Nc1ccccc1Cl)c1cnccn1` [Amide R1=H R2=2-Cl], the “Amides MIC” value in data set [2] (Šula's semisynthetic medium, pH = 5.6, growth indicated by turbidity) was 50 ^c [19] μg/mL. Turning to `O=C(Nc1cccc(Cl)c1)c1cnccn1` [Amide R1=H R2=3-Cl], the “Amides MIC” value in data set [2] (setting [8]) is >100 ^b [27] μg/mL. For the same compound, the “Amides Inhibition (%)” value in data set [1] was 14 [33] %.
